The values below come from US11999806B2, “Broad-spectrum polypeptide against enterovirus and application thereof” (WUHAN INSTITUTE OF VIROLOGY, CHINESE ACADEMY OF SCIENCES, priority 2018, dated 2024).

Several values for one entry are separate records, joined by “and”; a condition that tells them apart may be missing. Equal entries are not always repeated. No end group written: not given here.

The nature of data set [1]: Cytotoxicity by CCK-8 in RD cells. The format is cell-based. Particulars: human; for viability at 24 h, 0.01 µM: 0.01 μM polypeptide; for viability at 24 h, 0.1 µM: 0.1 μM polypeptide; for viability at 24 h, 1 µM: 1 μM polypeptide; for viability at 24 h, 10 µM: 10 μM polypeptide; for CC50 at 24 h: Table 1 summary, cell line not given, read-out: CC50.
The test system of another data set is RD cells. Briefly: Cytotoxicity by CCK-8 in RD cells. It is filed as cell-based. As to conditions: RD cells; for cytotoxicity, result in words: CCK-8, 24 h; for Cell viability (%): 24 h, untreated = 100%.
Setting [2] is: RD cells, 24 h, untreated = 100%, read-out: Cell viability (%).

As to `CC[C@@H](C)[C@@H](NC(=O)[C@H]1CCCN1C(C)=O)C(=O)N[C@@H](C(=O)N[C@H](Cc1c[nH]c2ccccc12)C(=O)NCC(=O)N[C@H](CCC(N)=O)C(=O)N[C@H](CCC(=O)O)C(=O)N[C@H](CCCNC(=N)N)C(=O)N[C@H](CS)C(=O)N[C@H](Cc1ccc(O)cc1)C(=O)N[C@H](CCC(N)=O)C(=O)N[C@H](CCCNC(=N)N)C(=O)N[C@@H](C(=O)N[C@H](CCC(=O)O)C(=O)N[C@H](CCC(=O)O)C(=O)N1CCC[C@@H]1C(=O)N1CCC[C@@H]1C(=O)N[C@H](CCCNC(=N)N)C(=O)N[C@H](CCCNC(=N)N)C(=O)N[C@H](CCCNC(=N)N)C(=O)N[C@H](CCC(N)=O)C(=O)N[C@H](CCCNC(=N)N)C(=O)N[C@H](CCCNC(=N)N)C(=O)N[C@H](CCCCN)C(=O)N[C@H](CCCCN)C(=O)N[C@H](CCCNC(=N)N)C(=O)NCC(=O)N[C@H](Cc1ccc(O)cc1)C(N)=O)C(C)C)[C@H](C)CC` [3A-EP-DRI], in data set [1] (setting [2]), the viability at 24 h, 0.01 µM was 106%; the viability at 24 h, 0.1 µM was found to be 95.9%; the viability at 24 h, 1 µM stood at 91.3%; the viability at 24 h, 10 µM worked out at 95.7%. The viability at 24 h, 20 µM in data set [1] (RD cells, 20 μM polypeptide, 24 h (Table 6), read-out: Cell viability (%)) was determined as 101%. Moreover, the viability at 24 h, 30 µM in data set [1] (RD cells, 30 μM polypeptide, 24 h (Table 6), read-out: Cell viability (%)) was found to be 99%. Also, in data set [1] (RD cells, 40 μM polypeptide, 24 h (Table 6), read-out: Cell viability (%)), the viability at 24 h, 40 µM turned out to be 89%. For the same compound, in data set [1] (RD cells, 50 μM polypeptide, 24 h (Table 6), read-out: Cell viability (%)), the viability at 24 h, 50 µM was found to be 78.5%. Besides, the cytotoxic concentration (CC50) at 24 h in data set [1] was more than 100 µM. Also, in the data set with RD cells, the “cytotoxicity, result in words” value is recorded as “not toxic to cells within 50 μM”.
In the case of RRRRRRRREEVRQYCRDQ [P2], the viability at 24 h, 0.01 µM in data set [1] (setting [2]) worked out at 98%. For the same compound, the viability at 24 h, 0.1 µM in data set [1] (setting [2]) was 94.4%. Further, the viability at 24 h, 1 µM in data set [1] (setting [2]) came out at 105%. Moreover, the viability at 24 h, 10 µM in data set [1] (setting [2]) is 96.6%. Moreover, in data set [1] (RD cells, 100 μM polypeptide, 24 h, untreated = 100%, read-out: Cell viability (%)), the viability at 24 h, 100 µM is 90.1%. For the same compound, the CC50 at 24 h in data set [1] was more than 100 µM. The “Cell viability (%)” value with RD cells (0.01 μM polypeptide) is 104.6% and 102.7%; in the data set with RD cells (0.1 μM polypeptide), 104% and 100.6%; with RD cells (1 μM polypeptide), 105.4% and 98.81%; in the data set on RD cells (10 μM polypeptide) it was 101.1% and 99.03%; with RD cells (100 μM polypeptide) it was 106.8% and 94.07%. Also, in the data set with RD cells, the “cytotoxicity, result in words” value is “not toxic to cells within 100 μM”.
